From patent US11479805B2, “Combinatorial single molecule analysis of chromatin” (The General Hospital Corporation, priority 2015, dated 2022)

What was measured:
[1] = tested on: acetylation marks in ESCs; assay: Western blot of acetylation marks in ESCs after HDAC or p300 inhibition; assay type: cell-based, Mouse; details: FIG. 12B, corresponds to FIG. 3D
Procedure: FIG. 12A-12B. […] (A) Scatter plot of the observed overlap of the indicated modification pair versus the overlap expected by chance. Corresponds to the data in FIG. 3A, 3B. […] Corresponds to the data in FIG. 3D.
(§1) For HDAC inhibition, 6 million ES cells were plated on a 150 cm plate. 0.5M stock solution of Sodium butyrate (Sigma, 303410) was prepared fresh for each experiment, and diluted in cell media to a final concentration of 1 mM. Following 6 hours of treatment (unless otherwise noted in text), cells were collected and washed with PBS. For p300 inhibition, 4 million ES cells were plated on a 150 cm plate. 25 mM stock solution of C646 (Sigma, SML0002) was prepared and diluted in cell media to a final concentration of 35 μM. Cells were treated for 24 hours, then collected and washed with PBS. For EZH2 inhibition, 2.5 million Karpas422 B-cell non-Hodgkin's lymphoma cells were suspended in 10 ml media. A 10 mM stock solution of the EZH2 inhibitor GSK126 (32) was prepared and diluted 1:1000 in cell media. Cells were harvested 3 days following treatment.

[2] = tested on: H3K9ac, H3K27ac, H3K4me3 and H3K27me3 on nucleosomes from ESCs; assay: Single-molecule decoding of nucleosomes from ESCs treated with HDAC inhibitor or p300 inhibitor; assay type: cell-based, Mouse; details: for change in H3K4me3 or H3K27me3 on nucleosomes: over the course of treatment (sodium butyrate 6 hours, C646 24 hours); for change in acetylation marks (H3K9ac, H3K27ac) on nucleosomes: sodium butyrate 1 mM 6 hours, C646 35 μM 24 hours, vs DMSO; for change in acetylation marks (H3K9ac, H3K27ac) on nucleosomes / preference of acetylation change for H3K4me3-marked nucleosomes (combination H3K27ac and H3K4me3): FIG. 3D; for preference of acetylation change for H3K4me3-marked nucleosomes (combination H3K27ac and H3K4me3): sodium butyrate 6 hours, C646 24 hours
Procedure: Applicants treated ESCs with a pan-HDAC inhibitor (sodium butyrate; 6 hours) or with a p300 HAT inhibitor (C646; 24 hours) and probed extracted nucleosomes for H3K9ac, H3K27ac, H3K4me3 and H3K27me3.
as §1
10 million cells were collected and washed twice with PBS, then resuspended in 500 μl of Lysis buffer (50 mM Tris-HCl pH 7.5, 150 mM NaCl, 1% Triton® X-100, 0.1% sodium deoxycholate, 5 mM CaCl2), supplemented with protease inhibitors (ThermoFisher Scientific, 78425), phosphatase inhibitors (ThermoFisher Scientific, 78420) and HDAC inhibitors (Sodium butyrate, Sigma 303410). Micrococcal Nuclease (ThermoFisher Scientific, 88216) was added to lysis buffer at a concentration of 1 unit per milliliter. The suspension is incubated at 4° C. for 1 hour to lyse the cells, after which MNase is activated by incubating at 37° C. for 20 min and inactivated by addition of EGTA at a final concentration of 20 mM. Next, Applicants centrifuged the lysate for 10 min at max speed and supernatant was transferred to a new tube. 10% of the lysate was used to extract DNA (QIAGEN PCR purification kit, 28104) and run on 2% agarose gel to verify MNase digestion. 100 μl of the lysate were used for ligation of fluorescent, biotinylated adaptors: sample was diluted 1:1 in ligation reaction mixture containing End-It™ DNA End-Repair Kit (Epicentre, ER0720) and Fast-Link™ DNA Ligation Kit (Epicentre, LK0750H). Ligation buffer (100 μl) contained 20 μl ligase buffer, 5 μl of 10 mM dNTPs, 16 μl of 10 Mm ATP, 8 μl End-It, 8 μl fast-link ligase, 1 μl protease inhibitors, 1 μl phosphatase inhibitors, 2 μl of 50 mM sodium butyrate solution, 8 μl annealed adaptors (see sequences below) and H2O. Following at least two hours of ligation at room temperature, 1.5 ml of PBS (supplemented with inhibitors) was added to the sample. Next, the sample was concentrated on an Amicon ultra-4 centrifugal filter unit with ultracel-100 membrane (Millipore, UFC810024) for 15 minutes, and the Pac1 enzymatic reaction (NEB, R0547S) was performed in order to digest adaptor concatemers (adaptors were designed to form Pac1 restriction site in cases of self-ligation). Following Pac1 digestion, nucleosomes were separated on 10-30% glycerol gradients for 18 hours at 35,000 rpm. Fractions were collected and analyzed on 6% DNA retardation gels (ThermoFisher Scientific, EC6365BOX). Gels were imaged with Typhoon trio+imager (Amersham Biosciences), and fractions containing mono-nucleosomes were combined and concentrated on an Amicon Ultra-0.5 Centrifugal Filter Unit with Ultracel-100 membrane (Millipore, UFC510096). For preparation of biotinylated histones (FIG. 2E), histones were purified from ESCs using acid extraction and TCA precipitation as described previously (89). Histones biotinylation was carried out with EZ-Link Sulfo-NHS-Biotinylation Kit (Thermo Scientific, 21425) according to manufacturer's protocol.

[3] = tested on: H3K27me3 on bivalent nucleosomes of Karpas422 lymphoma cells; assay: Single-molecule decoding of H3K27me3 and H3K4me3 on nucleosomes from EZH2 gain-of-function lymphoma cells treated with EZH2 inhibitor; assay type: cell-based, human; details: treatment for 3 days, FIG. 2G
Text: Genomic loci marked by bivalent chromatin in ESCs are frequently deregulated in cancer cells (26). Moreover, the Polycomb and trithorax complexes that catalyze H3K27me3 and H3K4me3 are often mutated in cancer (27, 28). Applicants therefore leveraged the single-molecule platform to investigate these modifications in cancer cells (FIG. 2B, 2C, 10B). First, Applicants examined three cell lines that lack known Polycomb or trithorax mutations: T-cell acute leukemia (DND-41), embryonic kidney (HEK293), and glioblastoma (GSC8). […] Applicants next examined a leukemia line (SKM-1) with a loss-of-function (LOF) mutation of the PRC2 subunit EZH2 (29, 30) (FIG. 2C). Applicants observed a drastic reduction of H3K27me3-marked nucleosomes, consistent with inactivation of this H3K27 methyltransferase. Applicants also examined a lymphoma cell line (Karpas422) with a gain-of-function (GOF) EZH2 mutation that increases its catalytic activity (30). Here Applicants detected H3K27me3 on a very high proportion of nucleosomes (15%). […] Even when controlling for the large fraction of H3K27me3-marked nucleosomes in these cells, the proportion of bivalent nucleosomes is ˜4-fold greater than expected from random overlap. […] This may reflect increased nucleosome turnover and/or preferential demethylation in such regions. […]

Structure (SMILES)	acetylation marks by Western blot [1]	change in H3K4me3 or H3K27me3 on nucleosomes [2]	change in acetylation marks (H3K9ac, H3K27ac) on nucleosomes [2]	preference of acetylation change for H3K4me3-marked nucleosomes (combination H3K27ac and H3K4me3) [2]	loss of H3K27me3 from bivalent nucleosomes [3]
CC1=NN(c2ccc(C(=O)O)cc2)C(=O)/C1=C\c1ccc(-c2cc(C)c(C)cc2[N+](=O)[O-])o1 [C646]	decrease in acetylation	Neither drug altered	opposite affect	H3K4me3-marked nucleosomes were more likely to retain their initial state	–
CC[C@H](C)n1cc(C)c2c(C(=O)NCc3c(C)cc(C)[nH]c3=O)cc(-c3ccc(N4CCNCC4)nc3)cc21 [GSK126]	–	–	–	–	preferential loss of H3K27me3 from bivalent nucleosomes
CCCC(=O)[O-].[Na+] [sodium butyrate, Sodium butyrate]	increase in acetylation marks	Neither drug altered	significantly increased	increased acetylation preferentially affected H3K4me3-marked nucleosomes	–
